From US5756121A, “Antibiotic formulation and use for drug resistant infections” (NeXstar Pharmaceuticals, Inc., priority 1995, dated 1998)
“And” between values parts separate entries of the source, which are not always exact repeats. Identical values can stand only once. “Also recorded” adds a separate entry of the source. Like-named read-outs stand apart in the source and are kept apart here.

System: M. tuberculosis, drug resistant strain Vertulla
Assay type: cell-based, Mycobacterium tuberculosis (in human macrophages)
Details: for CFU: duplicate values

NCC[C@H](O)C(=O)N[C@@H]1C[C@H](N)[C@@H](O[C@H]2O[C@H](CN)[C@@H](O)[C@H](O)[C@H]2O)[C@H](O)[C@H]1O[C@H]1O[C@H](CO)[C@@H](O)[C@H](N)[C@H]1O [amikacin]
CFU (4 μg/ml, day 4): 9.3 1 × 10^3 cfu per monolayer and 8.0 1 × 10^3 cfu per monolayer | CFU (8 μg/ml, day 4): 5 1 × 10^3 cfu per monolayer and 4 1 × 10^3 cfu per monolayer | CFU (8 μg/ml, day 7): 4.5 1 × 10^3 cfu per monolayer and 6.2 1 × 10^3 cfu per monolayer | CFU (16 μg/ml, day 4): 5 1 × 10^3 cfu per monolayer and 5.4 1 × 10^3 cfu per monolayer | CFU (16 μg/ml, day 7): 3.7 1 × 10^3 cfu per monolayer and 4.1 1 × 10^3 cfu per monolayer | inhibition / killing of drug resistant bacteria (in words) (4, 8 and 16 μg/ml, killing = fewer cfu than previous time point, listed as free amikacin): at the most, inhibition; also recorded: only inhibit the growth of the infection without killing
